Assays:
LHCBM1 [1] = target: T1, LHCBM1 (Chlamydomonas reinhardtii, UniProt Q93VE0); test: in vitro reconstitution, Ni-affinity and sucrose gradient, HPLC of bound pigments; assay type: binding; conditions: C. reinhardtii pigment mix, measured only as Neo+loro sum
T1 construct: gene LhcII-4

LHCBM9 [2] = target: T2, LHCBM9 (Chlamydomonas reinhardtii, UniProt Q8S3T9); test: as above; assay type: binding; conditions: C. reinhardtii pigment mix; measured only as Neo+loro sum
LHCBM9 [3] = target: T2, LHCBM9; test: as above; assay type: binding; conditions: C. reinhardtii pigment mix, Chl a/b 2.5; stoichiometry, not an affinity
Description: in vitro reconstitution, Ni-affinity and sucrose gradient, HPLC of bound pigments on LHCBM9

LHCBM1 [4] = target: T1, LHCBM1; test: as above; assay type: binding; conditions: C. reinhardtii pigment mix, Chl a/b 2.5, stoichiometry, not an affinity
Description: in vitro reconstitution, Ni-affinity and sucrose gradient, HPLC of bound pigments on LHCBM1

LHCBM5 = target: T3, LHCBM5 (Chlamydomonas reinhardtii, UniProt Q9ZSJ4); test: as above; assay type: binding; conditions: C. reinhardtii pigment mix, Chl a/b 2.5; stoichiometry, not an affinity
T3 construct: gene Lhcb3
Description: in vitro reconstitution, Ni-affinity and sucrose gradient, HPLC of bound pigments on LHCBM5

LHCBM2 = target: T4, LHCBM2 (Chlamydomonas reinhardtii, UniProt Q93WE0); test: as above; assay type: binding; conditions: C. reinhardtii pigment mix, Chl a/b 2.5; stoichiometry, not an affinity
T4 construct: gene LhcII-3
Description: in vitro reconstitution, Ni-affinity and sucrose gradient, HPLC of bound pigments on LHCBM2

LHCBM6 = target: T5, LHCBM6 (Chlamydomonas reinhardtii, UniProt A8J287); test: as above; assay type: binding; conditions: C. reinhardtii pigment mix, Chl a/b 2.5; stoichiometry, not an affinity
T5 construct: gene CHLRE_06g285250v5
Description: in vitro reconstitution, Ni-affinity and sucrose gradient, HPLC of bound pigments on LHCBM6

[5] = target: LHCBM2/7 (type III major light-harvesting complex protein of Chlamydomonas reinhardtii) (Chlamydomonas reinhardtii); test: sucrose density gradient ultracentrifugation + non-denaturing isoelectrofocusing (composition by SDS-PAGE); thylakoids solubilised with alpha-DM; trimeric band (B3) of the sucrose gradient separated by flat-bed ndIEF (ampholites pH 3.5-5, 0.06% beta-DM, 4 °C, 15 h); fractions run again as single bands on sucrose gradients (0.06% beta-DM, 20 mM Hepes pH 7.5); proteins identified by Tricine SDS-PAGE

T1 sequence (Q93VE0 entry or part of it): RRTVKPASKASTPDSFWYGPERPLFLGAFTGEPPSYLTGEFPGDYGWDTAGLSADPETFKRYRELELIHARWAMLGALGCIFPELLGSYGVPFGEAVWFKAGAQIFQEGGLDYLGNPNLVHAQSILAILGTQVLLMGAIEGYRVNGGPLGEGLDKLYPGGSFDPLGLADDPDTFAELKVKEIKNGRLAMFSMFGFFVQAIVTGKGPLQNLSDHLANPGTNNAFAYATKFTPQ
T2 sequence (Q8S3T9 entry or part of it): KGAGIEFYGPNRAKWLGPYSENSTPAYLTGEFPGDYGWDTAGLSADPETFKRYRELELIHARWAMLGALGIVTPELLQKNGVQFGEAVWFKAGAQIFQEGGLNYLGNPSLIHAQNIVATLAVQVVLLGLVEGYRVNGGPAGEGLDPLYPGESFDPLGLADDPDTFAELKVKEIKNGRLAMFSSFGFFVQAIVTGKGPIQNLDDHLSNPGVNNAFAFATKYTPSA
T3 sequence (Q9ZSJ4 entry or part of it): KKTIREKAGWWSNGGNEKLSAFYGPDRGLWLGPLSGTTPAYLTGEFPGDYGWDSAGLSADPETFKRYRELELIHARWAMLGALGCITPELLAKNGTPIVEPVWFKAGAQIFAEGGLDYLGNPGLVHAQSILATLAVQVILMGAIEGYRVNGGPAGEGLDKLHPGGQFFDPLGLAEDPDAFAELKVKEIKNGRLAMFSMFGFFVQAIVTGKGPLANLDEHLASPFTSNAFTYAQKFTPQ
T4 sequence (Q93WE0 entry or part of it): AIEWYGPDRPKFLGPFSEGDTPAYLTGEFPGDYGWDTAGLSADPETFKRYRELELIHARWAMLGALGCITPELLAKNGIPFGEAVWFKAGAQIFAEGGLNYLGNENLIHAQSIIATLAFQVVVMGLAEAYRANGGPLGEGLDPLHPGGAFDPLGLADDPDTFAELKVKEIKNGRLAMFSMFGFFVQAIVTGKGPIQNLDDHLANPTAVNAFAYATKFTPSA
T5 sequence (A8J287 entry or part of it): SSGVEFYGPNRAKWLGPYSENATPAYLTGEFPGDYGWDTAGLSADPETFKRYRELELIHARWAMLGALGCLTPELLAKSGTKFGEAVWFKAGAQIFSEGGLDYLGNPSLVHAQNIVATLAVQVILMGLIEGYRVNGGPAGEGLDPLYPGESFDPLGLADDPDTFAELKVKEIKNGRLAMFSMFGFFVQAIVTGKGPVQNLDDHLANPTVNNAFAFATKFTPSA

With `CC1=C[C@H](O)CC(C)(C)[C@H]1/C=C/C(C)=C/C=C/C(C)=C/C=C/C=C(C)/C=C/C=C(/C=C/C1=C(C)C[C@@H](O)CC1(C)C)CO` [loroxanthin] the “in vitro reconstitution, Ni-affinity and sucrose gradient, HPLC of bound pigment” value (shortened to “in vitro reconstitution … of bound pigment”) (LHCBM1 [1]; internal carotenoid site (L1 proposed)) was “All LHCBMs contain lutein, loroxanthin and neoxanthin and a small amount of violaxanthin” and the “in vitro reconstitution … of bound pigment” value (LHCBM9 [2]) was “All LHCBMs contain lutein, loroxanthin and neoxanthin and a small amount of violaxanthin”.
For `CC1=C[C@H](O)CC(C)(C)[C@H]1/C=C/C(C)=C/C=C/C(C)=C/C=C/C=C(C)/C=C/C=C(C)/C=C/C1=C(C)C[C@@H](O)CC1(C)C` [lutein], the Lut/mon (LHCBM9 [3]) was 1.19±0.06 mol per monomer (normalised to 14 Chls), the Lut/mon (LHCBM1 [4]) was 1.32±0.01 mol per monomer (normalised to 14 Chls) and the Lut/mon (LHCBM5) was 1.38±0.01 mol per monomer (normalised to 14 Chls). The Lut/mon (LHCBM2) was 1.43±0.04 mol per monomer (normalised to 14 Chls) and the Lut/mon (LHCBM6) was 1.25±0.01 mol per monomer (normalised to 14 Chls).
For `CC(=C/C=C/C(C)=C/C=C/C=C(C)/C=C/C=C(\C)C=C=C1C(C)(C)C[C@H](O)C[C@@]1(C)O)/C=C/[C@@]12O[C@]1(C)C[C@@H](O)CC2(C)C` [neoxanthin], the “in vitro reconstitution … of bound pigment” value (LHCBM1 [1]; N1 site suggested) was “All LHCBMs contain lutein, loroxanthin and neoxanthin and a small amount of violaxanthin”.
For `CC(/C=C/C=C(C)/C=C/[C@@]12O[C@]1(C)C[C@@H](O)CC2(C)C)=C\C=C\C=C(C)\C=C\C=C(C)\C=C\[C@@]12O[C@]1(C)C[C@@H](O)CC2(C)C` [violaxanthin], the Vio/mon (LHCBM9 [3]) was 0.24±0.01 mol per monomer (normalised to 14 Chls) and the Vio/mon (LHCBM1 [4]; V1 site suggested) was 0.11±0.01 mol per monomer (normalised to 14 Chls).
In the case of “LHCBM2/7 (type III major light-harvesting complex protein of Chlamydomonas reinhardtii) (natural protein)”, the stoichiometry N [5] is reported as 3.
